Assay results published in the supplement of paper PMC10307832.

Legend:
Test in all cases: relative viability (nuclei count vs DMSO), 5 days (fraction); higher = more cells survive
GSK126 + Alpelisib = compound: CC[C@H](C)N1C=C(C2=C(C=C(C=C21)C3=CN=C(C=C3)N4CCNCC4)C(=O)NCC5=C(C=C(NC5=O)C)C)C [GSK126] + Cc1nc(NC(=O)N2CCC[C@H]2C(N)=O)sc1-c1ccnc(C(C)(C)C(F)(F)F)c1 [Alpelisib] (partner 2 µM)
In short: (§1)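 The day after seeding in 1536-well plates, lung cancer cell lines were treated by pin tool with a single drug, or with a fixed anchor-drug dose together with five library-drug doses (not always all listed) in √10 steps. After 5 days, a combined fix-and-stain solution (final 0.05% Triton X-100, 1% formaldehyde, 1 ug/ml Hoechst) was added. Nuclei counted on 4× images gave relative viability as treated counts over vehicle counts, reported as the median of duplicate plates.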

Carboplatin + Decitabine = compound: C1CC(C1)(C(=O)O)C(=O)O.[NH2-].[NH2-].[Pt+2] [Carboplatin] + Nc1ncn([C@H]2C[C@H](O)[C@@H](CO)O2)c(=O)n1 [Decitabine] (partner 2 µM)
In short: as §1

Carboplatin + Phenformin = compound: C1CC(C1)(C(=O)O)C(=O)O.[NH2-].[NH2-].[Pt+2] [Carboplatin] + N=C(N)NC(=N)NCCc1ccccc1 [Phenformin] (partner 250 µM)
In short: as §1

MLN4924 + Lapatinib = compound: NS(=O)(=O)OC[C@@H]1C[C@@H](n2ccc3c(N[C@H]4CCc5ccccc54)ncnc32)C[C@@H]1O [MLN4924] + CS(=O)(=O)CCNCc1ccc(-c2ccc3ncnc(Nc4ccc(OCc5cccc(F)c5)c(Cl)c4)c3c2)o1 [Lapatinib] (partner 2 µM)
In short: as §1

| Cell Line | relative viability (GSK126 + Alpelisib; first compound 0.08 µM) | relative viability (GSK126 + Alpelisib; first compound 0.253 µM) | relative viability (GSK126 + Alpelisib; first compound 0.8 µM) | relative viability (GSK126 + Alpelisib; first compound 2.53 µM) | relative viability (GSK126 + Alpelisib; first compound 8 µM) | relative viability (Carboplatin + Decitabine; first compound 0.08 µM) | relative viability (Carboplatin + Decitabine; first compound 0.253 µM) | relative viability (Carboplatin + Decitabine; first compound 0.8 µM) | relative viability (Carboplatin + Decitabine; first compound 2.53 µM) | relative viability (Carboplatin + Decitabine; first compound 8 µM) | relative viability (Carboplatin + Phenformin; first compound 0.08 µM) | relative viability (Carboplatin + Phenformin; first compound 0.253 µM) | relative viability (Carboplatin + Phenformin; first compound 0.8 µM) | relative viability (Carboplatin + Phenformin; first compound 2.53 µM) | relative viability (Carboplatin + Phenformin; first compound 8 µM) | relative viability (MLN4924 + Lapatinib; first compound 0.04 µM) | relative viability (MLN4924 + Lapatinib; first compound 0.1265 µM) | relative viability (MLN4924 + Lapatinib; first compound 0.4 µM) | relative viability (MLN4924 + Lapatinib; first compound 1.265 µM) | relative viability (MLN4924 + Lapatinib; first compound 4 µM) |
| --- | --- | --- | --- | --- | --- | --- | --- | --- | --- | --- | --- | --- | --- | --- | --- | --- | --- | --- | --- | --- |
| NCI-H1993 | 0.632 | 0.72 | 0.773 | 0.748 | 0.661 | 0.64 | 0.661 | 0.559 | 0.559 | 0.473 | 0.542 | 0.498 | 0.467 | 0.477 | 0.499 | 0.732 | 0.666 | 0.581 | 0.547 | 0.516 |
| NCI-H1944 | 0.92 | 0.858 | 0.839 | 0.843 | 0.947 | 0.456 | 0.456 | 0.437 | 0.417 | 0.363 | 0.217 | 0.193 | 0.186 | 0.181 | 0.181 | 0.834 | 0.919 | 0.636 | 0.164 | 0.17 |
| SK-LU-1 | 1.01 | 1.11 | 1.2 | 1.18 | 1.03 | 0.719 | 0.677 | 0.625 | 0.586 | 0.46 | 0.78 | 0.578 | 0.44 | 0.533 | 0.41 | 0.703 | 0.491 | 0.299 | 0.19 | 0.181 |
| NCI-H1915 | 1.16 | 1.05 | 1.08 | 1.05 | 1.09 | 0.264 | 0.258 | 0.249 | 0.23 | 0.258 | 0.376 | 0.389 | 0.364 | 0.353 | 0.301 | 0.88 | 0.962 | 0.649 | 0.166 | 0.156 |
| NCI-H650 | 1.24 | 1.11 | 1.17 | 1.23 | 0.993 | 0.308 | 0.329 | 0.344 | 0.328 | 0.246 | 0.495 | 0.451 | 0.398 | 0.428 | 0.398 | 0.492 | 0.543 | 0.26 | 0.166 | 0.169 |
| SW 1573 | 0.725 | 0.811 | 0.819 | 0.773 | 0.786 | 0.493 | 0.524 | 0.587 | 0.4 | 0.26 | 0.38 | 0.354 | 0.414 | 0.359 | 0.265 | 0.781 | 1.1 | 0.565 | 0.13 | 0.114 |
| NCI-H460 | 0.673 | 0.486 | 0.369 | 0.504 | 0.431 | 0.461 | 0.476 | 0.481 | 0.298 | 0.149 | 0.548 | 0.507 | 0.504 | 0.404 | 0.122 | 0.657 | 0.0947 | 0.0407 | 0.016 | 0.0144 |
| COR-L23 | 0.814 | 0.826 | 0.792 | 0.755 | 0.647 | 0.402 | 0.514 | 0.412 | 0.361 | 0.21 | 0.453 | 0.394 | 0.428 | 0.353 | 0.241 | 0.921 | 0.672 | 0.431 | 0.142 | 0.106 |
| NCI-H1563 | 1.02 | 0.988 | 1.02 | 0.807 | 0.828 | – | – | – | – | – | 0.691 | 0.668 | 0.672 | 0.7 | 0.631 | 1.38 | 0.759 | 0.627 | 0.485 | 0.61 |
| NCI-H1703 | 0.364 | 0.343 | 0.36 | 0.417 | 0.482 | – | – | – | – | – | – | – | – | – | – | 0.416 | 0.205 | 0.218 | 0.189 | 0.164 |
| NCI-H1648 | – | – | – | – | – | 0.542 | 0.475 | 0.542 | 0.435 | 0.46 | – | – | – | – | – | – | – | – | – | – |
| NCI-H441 | 0.756 | 0.717 | 0.76 | 0.566 | 0.753 | 0.215 | 0.242 | 0.211 | 0.209 | 0.222 | 0.769 | 0.963 | 1 | 0.876 | 0.839 | – | – | – | – | – |
| IA-LM | 0.893 | 0.927 | 0.784 | 0.724 | 0.664 | – | – | – | – | – | – | – | – | – | – | 0.256 | 0.239 | 0.103 | 0.0582 | 0.0755 |
| NCI-H1650 | – | – | – | – | – | 0.426 | 0.498 | 0.425 | 0.365 | 0.308 | 0.457 | 0.5 | 0.359 | 0.406 | 0.349 | 0.385 | 0.261 | 0.182 | 0.149 | 0.185 |
| SW 900 | – | – | – | – | – | 0.431 | 0.361 | 0.42 | 0.395 | 0.377 | 0.713 | 0.561 | 0.608 | 0.431 | 0.414 | – | – | – | – | – |
| NCI-H1299 | 1.12 | 1 | 1.01 | 0.994 | 1.18 | – | – | – | – | – | – | – | – | – | – | 0.954 | 0.838 | 0.329 | 0.282 | 0.253 |
| NCI-H1623 | – | – | – | – | – | – | – | – | – | – | 0.586 | 0.609 | 0.586 | 0.534 | 0.513 | – | – | – | – | – |
| NCI-H2342 | – | – | – | – | – | 0.675 | 0.729 | 0.661 | 0.721 | 0.594 | 0.759 | 0.709 | 0.616 | 0.638 | 0.615 | – | – | – | – | – |
| NCI-H522 | – | – | – | – | – | 0.646 | 0.685 | 0.614 | 0.655 | 0.644 | 0.516 | 0.679 | 0.648 | 0.686 | 0.64 | – | – | – | – | – |
| ChaGo-K-1 | – | – | – | – | – | 0.563 | 0.527 | 0.464 | 0.413 | 0.388 | 0.459 | 0.508 | 0.467 | 0.381 | 0.392 | – | – | – | – | – |
| EBC-1 | 1.03 | 0.792 | 0.783 | 0.729 | 0.762 | – | – | – | – | – | – | – | – | – | – | 0.246 | 0.297 | 0.228 | 0.191 | 0.216 |
| Calu-6 | 1.04 | 0.983 | 1 | 1.01 | 1.07 | – | – | – | – | – | – | – | – | – | – | 0.868 | 0.6 | 0.211 | 0.122 | 0.129 |
| CAL-12T | 1.31 | 1.3 | 1.08 | 1.22 | 1.39 | – | – | – | – | – | 0.56 | 0.584 | 0.591 | 0.534 | 0.557 | – | 0.603 | 0.354 | 0.198 | 0.243 |
